# Test results from US7981903B2, “2-[2-{phenylamino}-1H-pyrrolo[2,3-D]pyrimidin-4-yl)amino] benzamide derivatives as IGF-1R inhibitors for the treatment of cancer” (GlaxoSmithKline LLC, priority 2007, dated 2011).
# How the values were obtained:
# Format in all cases: biochemical
# [1] = molecular target: T1, human IGF1R (hIGF1R) (Homo sapiens, UniProt P08069); test: TR-FRET kinase assay of purified hIGF1R; conditions: activated hIGF1R 0.5 nM, 10 μM ATP, values given as pIC50 category, read-out: IGF-1R pIC50 (converted)
# T1 construct: containing amino acid residues 957-1367 of human IGF1R; made in house; host or cells: Sf9 cells (baculovirus)
# Method: (§1) Time Resolved Fluorescence Resonance Energy Transfer (TR-FRET) assays were carried out on the exemplified compounds as follows:
# (§2) Purity is determined by HPLC. The calculated molecular mass of the peptide is 2216 dalton. Tyrosine phosphorylation by human IGF1R (hIGF1R) or human IR (hIR) occurs as indicated (Y*) in the peptide sequence described. Solid peptide sample is dissolved to approximately 1 mM in DMSO, aliquoted, and stored at −20° C. until use. True peptide concentration is determined by amino acid analysis.
# hIGF1R: GST-rTEV-IGF-1R(957-1367) containing amino acid residues 957-1367 of human IGF1R (as annotated by National Center for Biotechnology Information (NCBI) accession number NP_000866) is purified from a baculovirus expression system in Sf9 cells using Glutathione Sepharose 4FF column chromatography followed by Sephadex-200 size exclusion column chromatography. […] Samples, in 25 mM Tris-HCl, 250 mM NaCl, 5% glycerol, 1 mM DTT, pH 7.5, are stored at −80° C. until use.
# (§3) hIGF1R: Activation of GST-rTEV-IGF-1R(957-1367) is achieved by a 4 minute incubation of hIGF1R (2.7 μM final) with 2 mM ATP in 50 mM HEPES, 20 mM MgCL2, 0.1 mg/ml BSA, at room temperature. Autophosphorylation is stopped by addition of EDTA (to 100 mM final). Aliquoted samples are flash frozen in liquid nitrogen and stored at −80° C. until use.
# (§4) Assays are performed in 384-well (Greiner, Catalog No. 784076) microtiter plates. Reaction buffer (50 mM HEPES buffer, pH 7.5; 10 mM MgCL2; 3 mM DTT; 1 mM CHAPS; 0.1 mg/ml BSA) for peptide phosphorylation (10 μl volume) contained, in final concentrations, 500 nM biotinylated peptide substrate; 10 μM ATP; and purified, activated hIGF1R or hIR (0.5 nM). Compounds, titrated in DMSO, are evaluated at eleven concentrations ranging from 50 μM to 0.2 nM. […] Reactions are incubated for 1 hour at room temperature and are stopped by a 5 μl addition of EDTA (to 33 mM). A further addition of 5 μl detection reagents (for final 7 nM Streptavidin-APC (Perkin Elmer #CR^130-150), 1 nM Europium-labeled anti-phosphotyrosine monoclonal antibody (PerkinElmer #AD0067), added in reaction buffer (without DTT), is required for signal generation. After 30 minutes, signal is read on PerkinElmer Viewlux microplate imager or Wallac Victor fluorometer.
# (§5) The data for compound concentration responses were plotted as % Inhibition, calculated with the data reduction formula 100*(1-[(U1-C2)/(C1-C2)]), versus concentration of compound, where • U is the unknown value, • C1 is the average control value obtained for DMSO only, and • C2 is the average control value obtained for reactions stopped with EDTA at • t=0.
# (§6) Data were fitted to the curve described by: y=((Vmax*x)/(K+x)) where • Vmax is the upper asymptote and • K is the IC50.
# [2] = molecular target: T2, human IR (hIR) (Homo sapiens, UniProt P06213); test: TR-FRET kinase assay of purified hIR; conditions: activated hIR 0.5 nM, 10 μM ATP, values given as pIC50 category
# T2 construct: containing amino acid residues 979-1382 of human IR; made in house; host or cells: Sf9 cells (baculovirus), same process as hIGF1R
# Method: as §1, §2
# hIR: GST-rTEV-IR(979-1382) containing amino acid residues 979-1382 of human IR (as annotated by NCBI accession number NP_000199) is expressed and purified by the same process as hIGF1R. […] Samples, in 25 mM Tris-HCl, 250 mM NaCl, 5% glycerol, 1 mM DTT, pH 7.5, are stored at −80° C. until use.
# as §3, with “hIR:” for “hIGF1R:”, “5” for “4”, “hIR” for “hIGF1R”, “100” for “50”, “10” for “20”
# as §4, §5, §6
# [3] = molecular target: ALK (Homo sapiens, UniProt Q9UM73); test: ALK enzyme assay (HTRF); conditions: 0.25 nM ALK, 15.0 μM ATP, values given as pIC50 category
# Method: The method measures the ability of the isolated enzyme to catalyse the transfer of the gamma-phosphate from ATP onto the tyrosine residue of a biotinylated synthetic peptide. The extent of tyrosine phosphorylation was measured using an anti-phosphotyrosine antibody, and quantified by homogenous time-resolved fluorescence (HTRF) assay purchased from CisBio (62TK0PEJ).
# Reactions were performed in black 384-well polystyrene low volume plates in a final volume of 5 μl.
# The reactions were then started by adding the substrate mix. The reactions were allowed to proceed for 120 minutes at 20° C. The reactions were then terminated by the addition of 5 μl HTRF detection mix to each well. The final concentrations of the detection reagents were: 50 mM HEPES (pH7.0); 0.1% BSA; 0.8 M KF; 20 mM EDTA; 1 mM CHAPS; TK-antibody Europium Cryptate; and 41 nM streptavidin-XL665. Assay plates were left unsealed, stacked and incubated at 20° for 60 minutes. Quantification of activity was achieved by counting in an Envision Counter (PerkinElmer).
# Compounds under analysis were dissolved in Me2SO to 1.0 mM and serially diluted 1 to 3 with Me2SO through twelve dilutions. 0.05 μl of each concentration was transferred to the corresponding well of an assay plate. This creates a final compound concentration range from 0.00017 to 10 μM.
# The data for dose responses were plotted as % Inhibition calculated with the data reduction formula 100*(1-(U1-C2)/(C1-C2)) versus concentration of compound where U is the unknown value, C1 is the average control value obtained for 1% DMSO, and C2 is the average control value obtained for 0.1 M EDTA. Data were fitted with a curve described by:
# [formula] where A is the minimum y, B is the maximum y concentration [M], D is the slope factor, and x is the log10 of the compound.
# T2 sequence (P06213 979-1382): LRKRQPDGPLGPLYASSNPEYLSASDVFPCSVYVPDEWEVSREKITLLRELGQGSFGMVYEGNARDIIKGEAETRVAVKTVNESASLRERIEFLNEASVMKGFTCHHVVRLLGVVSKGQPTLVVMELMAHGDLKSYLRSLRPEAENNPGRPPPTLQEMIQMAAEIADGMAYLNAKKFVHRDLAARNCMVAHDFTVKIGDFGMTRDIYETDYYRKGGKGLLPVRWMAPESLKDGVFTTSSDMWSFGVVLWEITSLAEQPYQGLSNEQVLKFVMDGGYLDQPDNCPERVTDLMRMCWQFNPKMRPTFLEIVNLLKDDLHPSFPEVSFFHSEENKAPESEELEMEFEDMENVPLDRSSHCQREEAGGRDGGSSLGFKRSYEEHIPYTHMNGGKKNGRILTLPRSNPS
# Chain of ALK (Q9UM73 19-1620): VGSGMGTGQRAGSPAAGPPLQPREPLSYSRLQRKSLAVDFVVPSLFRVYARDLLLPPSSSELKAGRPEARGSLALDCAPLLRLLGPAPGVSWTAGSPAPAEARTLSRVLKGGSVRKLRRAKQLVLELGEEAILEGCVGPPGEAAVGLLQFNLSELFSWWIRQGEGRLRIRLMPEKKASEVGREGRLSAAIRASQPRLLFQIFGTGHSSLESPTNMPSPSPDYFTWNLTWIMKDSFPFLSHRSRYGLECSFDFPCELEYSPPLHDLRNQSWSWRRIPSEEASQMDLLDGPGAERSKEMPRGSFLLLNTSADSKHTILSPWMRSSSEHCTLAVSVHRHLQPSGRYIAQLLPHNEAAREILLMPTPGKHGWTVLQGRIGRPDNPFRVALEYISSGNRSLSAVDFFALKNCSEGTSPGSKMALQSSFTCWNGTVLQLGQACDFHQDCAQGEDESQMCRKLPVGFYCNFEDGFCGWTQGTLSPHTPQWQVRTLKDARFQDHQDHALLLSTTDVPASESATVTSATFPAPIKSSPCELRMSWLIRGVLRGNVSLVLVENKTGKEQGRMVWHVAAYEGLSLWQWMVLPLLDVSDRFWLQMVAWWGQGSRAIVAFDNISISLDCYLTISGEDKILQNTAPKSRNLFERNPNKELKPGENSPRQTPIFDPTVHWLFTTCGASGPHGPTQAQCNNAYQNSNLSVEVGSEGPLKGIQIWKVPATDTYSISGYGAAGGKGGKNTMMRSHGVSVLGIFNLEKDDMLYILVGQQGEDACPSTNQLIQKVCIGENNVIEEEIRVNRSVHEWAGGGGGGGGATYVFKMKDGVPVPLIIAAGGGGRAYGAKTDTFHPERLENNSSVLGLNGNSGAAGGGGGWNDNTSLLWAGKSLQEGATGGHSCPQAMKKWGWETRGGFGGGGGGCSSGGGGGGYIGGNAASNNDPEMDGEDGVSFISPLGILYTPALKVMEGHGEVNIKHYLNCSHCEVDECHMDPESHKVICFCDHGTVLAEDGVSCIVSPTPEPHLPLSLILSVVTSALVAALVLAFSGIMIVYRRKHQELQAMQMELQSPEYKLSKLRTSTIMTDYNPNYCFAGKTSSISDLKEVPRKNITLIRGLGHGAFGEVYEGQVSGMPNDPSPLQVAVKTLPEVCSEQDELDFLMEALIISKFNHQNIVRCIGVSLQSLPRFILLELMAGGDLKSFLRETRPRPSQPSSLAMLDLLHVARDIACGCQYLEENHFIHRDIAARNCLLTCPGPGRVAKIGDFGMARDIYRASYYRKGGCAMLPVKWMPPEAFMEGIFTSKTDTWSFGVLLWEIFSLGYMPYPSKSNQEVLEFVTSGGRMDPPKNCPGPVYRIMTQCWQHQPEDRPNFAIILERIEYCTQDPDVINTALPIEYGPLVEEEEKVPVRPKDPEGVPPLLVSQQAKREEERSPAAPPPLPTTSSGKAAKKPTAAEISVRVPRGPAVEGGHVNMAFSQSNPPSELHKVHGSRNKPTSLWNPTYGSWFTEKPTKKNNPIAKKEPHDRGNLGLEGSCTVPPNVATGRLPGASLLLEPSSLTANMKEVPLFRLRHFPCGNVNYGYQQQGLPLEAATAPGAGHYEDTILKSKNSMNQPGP
# T1 sequence (P08069 957-1367): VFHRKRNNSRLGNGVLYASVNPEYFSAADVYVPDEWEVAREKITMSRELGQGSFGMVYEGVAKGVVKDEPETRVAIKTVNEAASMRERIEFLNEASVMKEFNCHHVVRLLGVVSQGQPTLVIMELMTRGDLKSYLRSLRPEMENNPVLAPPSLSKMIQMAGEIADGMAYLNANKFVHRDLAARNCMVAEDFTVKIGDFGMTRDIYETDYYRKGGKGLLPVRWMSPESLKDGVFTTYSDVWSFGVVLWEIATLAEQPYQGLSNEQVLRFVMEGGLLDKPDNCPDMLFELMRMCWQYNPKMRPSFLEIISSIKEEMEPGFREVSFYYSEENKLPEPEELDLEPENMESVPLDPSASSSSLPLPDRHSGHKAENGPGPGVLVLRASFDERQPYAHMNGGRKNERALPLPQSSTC
smiles,measurement,setting,value
"CCCN1CCC=C(c2ccc(Nc3nc(Nc4ccccc4C(N)=O)c4cc[nH]c4n3)c(C)c2)C1 [Example 1, 2-[(2-{[2-methyl-4-(1-propyl-1,2,5,6-tetrahydro-3-pyridinyl)phenyl]amino}-1H-pyrrolo[2,3-d]pyrimidin-4-yl)amino]benzamide]",IC50,[1],5.01 to 200 nM
same,IC50,[2],5.01 to 158 nM
same,IC50,[3],0.251 to 1 nM
"COc1cc2c(cc1Nc1nc(Nc3cccc(F)c3C(N)=O)c3cc[nH]c3n1)N(C(=O)CN1CCC(O)C1)CC2 (centres unmarked) [Example 181, 2-fluoro-6-[(2-{[1-[(3-hydroxy-1-pyrrolidinyl)acetyl]-5-(methyloxy)-2,3-dihydro-1H-indol-6-yl]amino}-1H-pyrrolo[2,3-d]pyrimidin-4-yl)amino]benzamide]",IC50,[3],1.26 to 3.98 nM
"CNC(=O)c1c(F)cccc1Nc1nc(Nc2ccc3c(c2)N(C(=O)CN(C)C)CC3)nc2[nH]ccc12 [Example 130, 2-[(2-{[1-(N,N-dimethylglycyl)-2,3-dihydro-1H-indol-6-yl]amino}-1H-pyrrolo[2,3-d]pyrimidin-4-yl)amino]-6-fluoro-N-methylbenzamide]",IC50,[1],5.01 to 200 nM
same,IC50,[2],5.01 to 158 nM
same,IC50,[3],5.01 to 200 nM
"COc1ccc(CS(C)(=O)=O)cc1Nc1nc(Nc2ccccc2C(N)=O)c2cc[nH]c2n1 [Example 20, 2-{[2-({2-(methyloxy)-5-[(methylsulfonyl)methyl]phenyl}amino)-1H-pyrrolo[2,3-d]pyrimidin-4-yl]amino}benzamide]",IC50,[1],5.01 to 200 nM
same,IC50,[2],5.01 to 158 nM
same,IC50,[3],5.01 to 200 nM
"CNC(=O)c1ccccc1Nc1nc(Nc2cc3c(cc2OC)CCN3C(=O)CN(C)C)nc2[nH]ccc12 [Example 241, 2-[(2-{[1-(N,N-dimethylglycyl)-5-(methyloxy)-2,3-dihydro-1H-indol-6-yl]amino}-1H-pyrrolo[2,3-d]pyrimidin-4-yl)amino]-N-methylbenzamide]",IC50,[3],5.01 to 200 nM
"Cc1ccc(Nc2nc(Nc3cc(NC(=O)CN(C)C)ccc3C)nc3[nH]ccc23)c(C(N)=O)c1 [Example 34, 2-{[2-({5-[(N,N-dimethylglycyl)amino]-2-methylphenyl}amino)-1H-pyrrolo[2,3-d]pyrimidin-4-yl]amino}-5-methylbenzamide]",IC50,[1],5.01 to 200 nM
same,IC50,[2],1.26 to 3.98 nM
same,IC50,[3],5.01 to 200 nM
"CNC(=O)c1c(F)cccc1Nc1nc(Nc2cc3c(cc2OC)CCN3C(=O)[C@H]2CCCN2C)nc2[nH]ccc12 [Example 129, 2-fluoro-N-methyl-6-[(2-{[5-(methyloxy)-1-(1-methyl-D-prolyl)-2,3-dihydro-1H-indol-6-yl]amino}-1H-pyrrolo[2,3-d]pyrimidin-4-yl)amino]benzamide]",IC50,[1],5.01 to 200 nM
same,IC50,[2],5.01 to 158 nM
same,IC50,[3],5.01 to 200 nM
"COCCN(C)CC(=O)N1CCc2cc(OC)c(Nc3nc(Nc4cccc(F)c4C(N)=O)c4cc[nH]c4n3)cc21 [Example 170, 2-fluoro-6-[(2-{[1-{N-methyl-N-[2-(methyloxy)ethyl]glycyl}-5-(methyloxy)-2,3-dihydro-1H-indol-6-yl]amino}-1H-pyrrolo[2,3-d]pyrimidin-4-yl)amino]benzamide]",IC50,[1],0.251 to 1 nM
same,IC50,[2],0.251 to 1 nM
same,IC50,[3],1.26 to 3.98 nM
"COc1cc2c(cc1Nc1nc(Nc3ccccc3C(N)=O)c3cc[nH]c3n1)N(C(=O)CN(C)C)CC2 [Example 240, 2-[(2-{[1-(N,N-dimethylglycyl)-5-(methyloxy)-2,3-dihydro-1H-indol-6-yl]amino}-1H-pyrrolo[2,3-d]pyrimidin-4-yl)amino]benzamide]",IC50,[3],0.251 to 1 nM
"CNC(=O)c1c(F)cccc1Nc1nc(Nc2cc3c(cc2OC)CCN(CCF)C3)nc2[nH]ccc12 [Example 234, 2-fluoro-6-[(2-{[2-(2-fluoroethyl)-6-(methyloxy)-1,2,3,4-tetrahydro-7-isoquinolinyl]amino}-1H-pyrrolo[2,3-d]pyrimidin-4-yl)amino]-N-methylbenzamide]",IC50,[1],5.01 to 200 nM
same,IC50,[2],1.26 to 3.98 nM
same,IC50,[3],0.251 to 1 nM
"CNC(=O)c1c(F)cccc1Nc1nc(Nc2cc3c(cc2OC)CCN3C(=O)CN2CCC(O)C2)nc2[nH]ccc12 (centres unmarked) [Example 182, 2-fluoro-6-[(2-{[1-[(3-hydroxy-1-pyrrolidinyl)acetyl]-5-(methyloxy)-2,3-dihydro-1H-indol-6-yl]amino}-1H-pyrrolo[2,3-d]pyrimidin-4-yl)amino]-N-methylbenzamide]",IC50,[3],0.251 to 1 nM
"CCOc1cc2c(cc1Nc1nc(Nc3cccc(F)c3C(=O)NC)c3cc[nH]c3n1)N(C(=O)CN(C)C)CCC2 [Example 133, 2-[(2-{[1-(N,N-dimethylglycyl)-6-(ethyloxy)-1,2,3,4-tetrahydro-7-quinolinyl]amino}-1H-pyrrolo[2,3-d]pyrimidin-4-yl)amino]-6-fluoro-N-methylbenzamide]",IC50,[1],1.26 to 3.98 nM
same,IC50,[2],1.26 to 3.98 nM
same,IC50,[3],1.26 to 3.98 nM
"CCCN1CCC=C(c2ccc(Nc3nc(Nc4ccc(OC)cc4C(N)=O)c4cc[nH]c4n3)c(C)c2)C1 [Example 37, 5-(methyloxy)-2-[(2-{[2-methyl-4-(1-propyl-1,2,5,6-tetrahydro-3-pyridinyl)phenyl]amino}-1H-pyrrolo[2,3-d]pyrimidin-4-yl)amino]benzamide]",IC50,[1],5.01 to 200 nM
same,IC50,[3],1.26 to 3.98 nM
"CNC(=O)c1c(F)cccc1Nc1nc(Nc2cc3c(cc2OC)CCN3C(=O)CN2CCCC(O)C2)nc2[nH]ccc12 (centres unmarked) [Example 184, 2-fluoro-6-[(2-{[1-[(3-hydroxy-1-piperidinyl)acetyl]-5-(methyloxy)-2,3-dihydro-1H-indol-6-yl]amino}-1H-pyrrolo[2,3-d]pyrimidin-4-yl)amino]-N-methylbenzamide]",IC50,[3],1.26 to 3.98 nM
"COc1cc2c(cc1Nc1nc(Nc3cccc(F)c3C(N)=O)c3cc[nH]c3n1)N(C(=O)CN1CCCC(O)C1)CC2 (centres unmarked) [Example 183, 2-fluoro-6-[(2-{[1-[(3-hydroxy-1-piperidinyl)acetyl]-5-(methyloxy)-2,3-dihydro-1H-indol-6-yl]amino}-1H-pyrrolo[2,3-d]pyrimidin-4-yl)amino]benzamide]",IC50,[3],0.251 to 1 nM
